# In ChEMBL document CHEMBL3400138, “Synthesis of 3-azabicyclo[3.2.2]nonanes and their antiprotozoal activities” (Bioorg Med Chem Lett, 2015):
# Active and inactive are the calls of the source. The calls are words filed in the database; no cut-off is given here.
# Legend:
# [1] = Selectivity index, ratio of CC50 for rat L6 cells to IC50 for Trypanosoma brucei rhodesiense STIB900; type: functional
# Escherichia coli = test: Antibacterial activity against Escherichia coli ATCC 25922 at 100 ug after 24 hrs; type: functional; conditions: ATCC 25922, 24 h, read-out: DIZ
# Staphylococcus aureus = test: Antibacterial activity against Staphylococcus aureus ATCC 25923 at 100 ug after 24 hrs; type: functional
# Enterococcus faecalis = test: Antibacterial activity against Enterococcus faecalis ATCC 14506 at 100 ug after 24 hrs; type: functional
# Plasmodium falciparum = test: Antiplasmodial activity against chloroquine and pyrimethamine resistant Plasmodium falciparum K1 infected in human red blood cells assessed as reduction in parasite viability after 48 hrs by [3H]-hypoxanthine incorporation assay; type: functional, organism-based
# [2] = Selectivity index, ratio of CC50 for rat L6 cells to IC50 for chloroquine and pyrimethamine resistant Plasmodium falciparum K1; type: functional
# [3] = test system: Trypanosoma brucei rhodesiense; test: Antitrypanosomal activity against Trypanosoma brucei rhodesiense STIB900 bloodstream forms after 72 hrs by alamar blue assay; type: functional, organism-based; conditions: STIB900, 72 h
# L6 = test: Cytotoxicity against rat L6 cells after 72 hrs by alamar blue assay; type: cell-based; conditions: L6, 72 h
# [4] = target: Voltage-gated inwardly rectifying potassium channel KCNH2 (Homo sapiens, UniProt Q12809); test: Inhibition of human ERG expressed in HEK293 cells assessed as reduction in tail current at membrane potential of +20 mV; type: cell-based
# Sequence of Voltage-gated inwardly rectifying potassium channel KCNH2 (Q12809 whole entry): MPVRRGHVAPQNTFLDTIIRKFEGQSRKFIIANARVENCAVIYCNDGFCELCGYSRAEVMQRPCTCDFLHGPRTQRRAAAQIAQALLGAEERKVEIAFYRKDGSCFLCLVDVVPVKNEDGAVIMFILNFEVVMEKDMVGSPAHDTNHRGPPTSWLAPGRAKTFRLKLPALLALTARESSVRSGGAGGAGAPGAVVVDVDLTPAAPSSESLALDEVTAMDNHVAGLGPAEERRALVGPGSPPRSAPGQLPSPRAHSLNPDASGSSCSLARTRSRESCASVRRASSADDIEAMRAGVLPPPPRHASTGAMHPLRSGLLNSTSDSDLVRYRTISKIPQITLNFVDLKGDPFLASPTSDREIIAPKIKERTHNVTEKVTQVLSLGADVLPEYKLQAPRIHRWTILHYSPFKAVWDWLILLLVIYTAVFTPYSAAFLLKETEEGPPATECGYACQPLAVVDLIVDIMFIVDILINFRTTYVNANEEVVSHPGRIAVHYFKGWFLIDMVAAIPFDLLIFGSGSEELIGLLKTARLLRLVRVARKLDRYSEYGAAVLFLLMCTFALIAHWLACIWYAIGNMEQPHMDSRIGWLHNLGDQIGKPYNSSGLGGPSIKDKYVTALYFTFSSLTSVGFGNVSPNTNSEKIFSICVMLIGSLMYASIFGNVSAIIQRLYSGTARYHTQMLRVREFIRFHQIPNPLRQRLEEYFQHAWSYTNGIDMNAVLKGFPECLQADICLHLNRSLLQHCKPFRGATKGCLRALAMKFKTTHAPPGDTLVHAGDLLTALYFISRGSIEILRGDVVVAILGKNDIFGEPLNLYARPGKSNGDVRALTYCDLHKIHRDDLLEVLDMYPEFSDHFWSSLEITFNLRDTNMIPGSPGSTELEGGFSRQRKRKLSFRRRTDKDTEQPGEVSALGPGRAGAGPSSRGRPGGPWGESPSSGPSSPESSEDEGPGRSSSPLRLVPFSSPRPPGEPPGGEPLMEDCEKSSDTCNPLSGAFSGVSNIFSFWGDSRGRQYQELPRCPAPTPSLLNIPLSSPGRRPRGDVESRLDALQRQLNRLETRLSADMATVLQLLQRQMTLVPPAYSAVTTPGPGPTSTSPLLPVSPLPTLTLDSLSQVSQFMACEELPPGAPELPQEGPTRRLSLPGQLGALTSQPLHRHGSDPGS
# hERG (KCNH2) [5] = target: T1, hERG (KCNH2) (Homo sapiens, UniProt Q12809); test: Inhibition of human ERG expressed in HEK293 cells assessed as reduction in tail current at 3 uM and at membrane potential of +20 mV; type: cell-based; conditions: HEK293 cells that express hERG
# T1 sequence (Q12809 whole entry): as above
# Leishmania sp. = test: Antiparasitic activity against Leishmania sp.; type: functional, organism-based
# Plasmodium berghei [6] = test: Antiplasmodial activity against GFP-transfected Plasmodium berghei ANKA infected in NMRI mouse assessed as reduction in parasitemia at 100 mg/kg, po administered 24 hrs post infection by FACS analysis; type: functional
# Mus musculus = test: Toxicity in GFP-transfected Plasmodium berghei ANKA infected NMRI mouse at 200 mg/kg, po administered 24 hrs post infection; type: organism-based; parameters: dose 200 mg/kg, route oral; conditions: in vivo
# Plasmodium berghei [7] = test: Antiplasmodial activity against GFP-transfected Plasmodium berghei ANKA infected in NMRI mouse assessed as reduction in parasitemia at 10 mg/kg, ip administered 4, 24, 48 and 72 hrs post infection by FACS analysis; type: functional; conditions: route intraperitoneal
# Plasmodium berghei [8] = test: Antiplasmodial activity against GFP-transfected Plasmodium berghei ANKA infected in NMRI mouse assessed as reduction in parasitemia at 20 mg/kg, ip administered 4, 24, 48 and 72 hrs post infection by FACS analysis; type: functional; conditions: route intraperitoneal
# [9] = Half life in rat at 10 mg/kg, iv; type: ADME, organism-based; parameters: dose 10 mg/kg, route intravenous; conditions: in vivo
# Plasmodium berghei [10] = test: Antiplasmodial activity against GFP-transfected Plasmodium berghei ANKA infected in NMRI mouse assessed as reduction in parasitemia at 50 mg/kg, ip administered 4, 24, 48 and 72 hrs post infection by FACS analysis; type: functional; conditions: route intraperitoneal
# Plasmodium berghei [11] = test: Antiplasmodial activity against GFP-transfected Plasmodium berghei ANKA infected in NMRI mouse assessed as mean survival day at 100 mg/kg, po administered 24 hrs post infection (reference value: 3 days); type: functional
# Enterococcus faecium = test: Antibacterial activity against Enterococcus faecium ATCC 6057 at 100 ug after 24 hrs; type: functional; conditions: ATCC 6057, 24 h, read-out: DIZ
# Bacillus subtilis = test: Antibacterial activity against Bacillus subtilis ATCC 6051 at 100 ug after 24 hrs; type: functional, organism-based
# Trypanosoma = test: Antiparasitic activity against Trypanosoma sp.; type: functional, organism-based
# Plasmodium berghei [12] = test: Antiplasmodial activity against GFP-transfected Plasmodium berghei ANKA infected in NMRI mouse assessed as reduction in parasitemia administered intraperitoneally 4, 24, 48 and 72 hrs post infection by FACS analysis; type: functional
# [13] = test system: Mycolicibacterium smegmatis; test: Antimycobacterial activity against Mycobacterium smegmatis ATCC 14468 assessed as inhibition of bacterial growth after 72 hrs by MTT dye based microbroth dilution assay; type: functional; conditions: ATCC 14468, 72 h
# Plasmodium berghei [14] = test: Antiplasmodial activity against GFP-transfected Plasmodium berghei ANKA infected in NMRI mouse assessed as reduction in parasitemia at 100 mg/kg, po administered 4, 24, 48 and 72 hrs post infection by FACS analysis; type: functional
# Plasmodium berghei [15] = test: Antiplasmodial activity against GFP-transfected Plasmodium berghei ANKA infected in NMRI mouse assessed as mean survival day at 10 mg/kg, ip administered 4, 24, 48 and 72 hrs post infection (reference value: 4 days); type: functional; conditions: route intraperitoneal
# Klebsiella oxytoca = test: Antibacterial activity against Klebsiella oxytoca ATCC 8724 at 100 ug after 24 hrs; type: functional, organism-based
# Plasmodium berghei [16] = test: Antiplasmodial activity against GFP-transfected Plasmodium berghei ANKA infected in NMRI mouse assessed as mean survival day at 200 mg/kg, po administered 24 hrs post infection (reference value: 3 days); type: functional
# Plasmodium berghei [17] = test: Antiplasmodial activity against GFP-transfected Plasmodium berghei ANKA infected in NMRI mouse assessed as reduction in parasitemia at 200 mg/kg, po administered 24 hrs post infection by FACS analysis; type: functional
# Plasmodium berghei [18] = test: Antiplasmodial activity against orally dosed GFP-transfected Plasmodium berghei ANKA infected in NMRI mouse assessed as reduction in parasitemia by FACS analysis; type: functional
# Candida parapsilosis = test: Antifungal activity against Candida parapsilosis ATCC 90018 at 100 ug after 48 hrs; type: functional, organism-based
# Plasmodium berghei [19] = test: Antiplasmodial activity against GFP-transfected Plasmodium berghei ANKA infected in NMRI mouse assessed as mean survival day at 50 mg/kg, ip administered 4, 24, 48 and 72 hrs post infection (reference value: 4 to 6 days); type: functional; conditions: route intraperitoneal
# Candida tropicalis = test: Antifungal activity against Candida tropicalis ATCC 13803 at 100 ug after 48 hrs; type: functional, organism-based
# [20] = test system: Staphylococcus epidermidis; test: Antibacterial activity against Staphylococcus epidermidis ATCC 12228 at 100 ug after 24 hrs; type: functional, organism-based
# Plasmodium berghei [21] = test: Antiplasmodial activity against GFP-transfected Plasmodium berghei ANKA infected in NMRI mouse assessed as mean survival day at 20 mg/kg, ip administered 4, 24, 48 and 72 hrs post infection (reference value: 4 days); type: functional; conditions: route intraperitoneal
# hERG (KCNH2) [22] = target: T1, hERG (KCNH2); test: Inhibition of human ERG expressed in HEK293 cells assessed as reduction in tail current at 3 uM and at membrane potential of +0 mV; type: cell-based; conditions: HEK293 cells that express hERG
# Plasmodium berghei [23] = test: Antiplasmodial activity against GFP-transfected Plasmodium berghei ANKA infected in NMRI mouse assessed as mean survival day at 100 mg/kg, po administered 4, 24, 48 and 72 hrs post infection (reference value: 4 days); type: functional
# Raoultella planticola = test: Antibacterial activity against Raoultella planticola ATCC 15050 at 100 ug after 24 hrs; type: functional, organism-based
# Candida albicans = test: Antifungal activity against Candida albicans ATCC 10231 at 100 ug after 48 hrs; type: functional, organism-based
# Proteus mirabilis = test: Antibacterial activity against Proteus mirabilis ATCC 14153 at 100 ug after 24 hrs; type: functional; conditions: ATCC 14153, 24 h, read-out: DIZ
smiles,measurement,setting,value
CN(C)C12CCNC(C(c3ccc(Cl)cc3)C1)C(c1ccc(Cl)cc1)C2.Cl (racemic),Ratio IC50,[1],143
CC1(C)S[C@@H]2[C@H](NC(=O)Cc3ccccc3)C(=O)N2[C@H]1C(=O)O [PENICILLIN G],zone of inhibition at 100 µg/disc,Escherichia coli,15 mm
same,zone of inhibition at 100 µg/disc,"Staphylococcus aureus; ATCC 25923, 24 h, read-out: DIZ",30 mm
same,zone of inhibition at 100 µg/disc,"Enterococcus faecalis; ATCC 14506, 24 h, read-out: DIZ",20 mm
Cl.O=C1NCC2(N3CCOCC3)CC(c3ccccc3)C1C(c1ccccc1)C2 (stereo not drawn),IC50,Plasmodium falciparum,> 13.3 µM
same,Ratio IC50,[2],18
same,IC50,[3],128 µM
same,Ratio IC50,[1],1.9
same,IC50,L6,> 239 µM
Cl.c1ccc(C2CC3(N4CCCC4)CNCC2C(c2ccccc2)C3)cc1 (racemic),IC50,[4],2.63 µM
same,inhibition (INH),"[4]; human, hek293",Dose-dependent effect
same,inhibition at 3 µM,hERG (KCNH2) [5],54.8%
same,inhibition,Leishmania sp.,Active
same,inhibition in vivo at 100 mg/kg,Plasmodium berghei [6],70.5%
same,Activity,Mus musculus,Toxic
same,inhibition in vivo at 10 mg/kg,Plasmodium berghei [7],25.1%
same,inhibition in vivo at 20 mg/kg,Plasmodium berghei [8],60.1%
same,half-life,[9],18 min
same,IC50,Plasmodium falciparum,0.095 µM
same,Ratio IC50,[2],767.7
same,inhibition in vivo at 50 mg/kg,Plasmodium berghei [10],94.8%
same,MSD,Plasmodium berghei [11],12 days
same,zone of inhibition at 100 µg/disc,Enterococcus faecium,10 mm
same,diameter of the inhibition zone (DIZ),Bacillus subtilis,inactive
same,IC50,[3],1 µM
same,Ratio IC50,[1],72.9
same,inhibition,Trypanosoma,Active
same,inhibition,Plasmodium berghei [12],Dose-dependent effect
same,ED50,Plasmodium berghei [12]; ip,17 mg/kg
same,ED90,Plasmodium berghei [12]; ip,40 mg/kg
same,IC50,L6,72.9 µM
same,MIC,[13],128 µg/mL
same,inhibition in vivo at 100 mg/kg,Plasmodium berghei [14],97.7%
same,zone of inhibition at 100 µg/disc,Escherichia coli,10 mm
same,MSD,Plasmodium berghei [15],4 days
same,diameter of the inhibition zone (DIZ),Klebsiella oxytoca,inactive
same,MSD,Plasmodium berghei [16],16 days
same,inhibition in vivo at 200 mg/kg,Plasmodium berghei [17],66.1%
same,inhibition,Plasmodium berghei [18],Dose-dependent effect
same,ED50,Plasmodium berghei [18]; po,75 mg/kg
same,diameter of the inhibition zone (DIZ),Candida parapsilosis,inactive
same,diameter of the inhibition zone (DIZ),Staphylococcus aureus,inactive
same,MSD,Plasmodium berghei [19],15 days
same,diameter of the inhibition zone (DIZ),Candida tropicalis,inactive
same,diameter of the inhibition zone (DIZ),[20],inactive
same,MSD,Plasmodium berghei [21],10 days
same,inhibition at 3 µM,hERG (KCNH2) [22],45.9%
same,MSD,Plasmodium berghei [23],18.6 days
same,diameter of the inhibition zone (DIZ),Raoultella planticola,inactive
same,diameter of the inhibition zone (DIZ),Candida albicans,inactive
same,diameter of the inhibition zone (DIZ),Enterococcus faecalis,inactive
same,zone of inhibition at 100 µg/disc,Proteus mirabilis,11 mm
C[C@@H]1CC[C@H]2[C@@H](C)C(=O)O[C@@H]3O[C@@]4(C)CC[C@@H]1[C@]32OO4 [ARTEMISININ],IC50,Plasmodium falciparum,0.0064 µM
Cl.O=C1CC2(N3CCCC3)CC(c3ccccc3)C(N1)C(c1ccccc1)C2 (racemic),Ratio IC50,[2],28.5
same,Ratio IC50,[1],6.6
Cl.Clc1ccc(C2CC3(N4CCCCC4)CCNC2C(c2ccc(Cl)cc2)C3)cc1 (racemic),Ratio IC50,[1],124
Cl.c1ccc(C2CC3(N4CCOCC4)CNCC2C(c2ccccc2)C3)cc1 (racemic),IC50,Plasmodium falciparum,0.65 µM
same,Ratio IC50,[2],66.63
same,IC50,[3],3.84 µM
same,Ratio IC50,[1],11.3
same,IC50,L6,43.3 µM
CN(C)C12CNCC(C(c3ccc(Cl)cc3)C1)C(c1ccc(Cl)cc1)C2.Cl (stereo not drawn),IC50,Plasmodium falciparum,0.77 µM
same,Ratio IC50,[2],11.63
same,IC50,[3],0.34 µM
same,Ratio IC50,[1],26.4
same,IC50,L6,8.96 µM
Cl.O=C1CC2(N3CCOCC3)CC(c3ccccc3)C(N1)C(c1ccccc1)C2 (racemic),IC50,Plasmodium falciparum,> 13.3 µM
same,Ratio IC50,[2],18
same,IC50,[3],138 µM
same,Ratio IC50,[1],1.7
same,IC50,L6,> 239 µM
Cl.c1ccc(C2CC3(N4CCCCC4)CNCC2C(c2ccccc2)C3)cc1 (racemic),IC50,Plasmodium falciparum,0.75 µM
same,Ratio IC50,[2],163.1
same,IC50,[3],2.02 µM
same,Ratio IC50,[1],60.5
same,IC50,L6,122 µM
Cl.c1ccc(C2CC3(N4CCCC4)CCNC2C(c2ccccc2)C3)cc1 (racemic),Ratio IC50,[1],103
Cl.O=C1CC2(N3CCCCC3)CC(c3ccccc3)C(N1)C(c1ccccc1)C2 (racemic),Ratio IC50,[1],6.4
